Measurements from the NIST ThermoML archive (doi:10.1016/j.jct.2013.12.025).
± gives the expanded uncertainty stated by the source.

Tests used:
[1] = 101 kPa, Liquid, Vibrating tube method
[2] = refractive index (Na D-line) (dimensionless); details: 101.33 kPa, Liquid, Standard Abbe refractometry
[3] = xn = mol fraction of the nth substance listed; details: 101 kPa, Liquid, Vibrating tube method, x2 = 0
[4] = refractive index (Na D-line) (dimensionless); xn = mol fraction of the nth substance listed; details: 101 kPa, Liquid, Standard Abbe refractometry, x2 = 0

Compound	mass density ([3]; 283.15 K)	mass density ([3]; 288.15 K)	mass density ([3]; 293.15 K)	mass density ([3]; 298.15 K)	mass density ([3]; 303.15 K)	refractive index ([4]; 283.15 K)	refractive index ([4]; 288.15 K)	refractive index ([4]; 293.15 K)	refractive index ([4]; 298.15 K)	refractive index ([4]; 303.15 K)	mass density ([1]; 283.15 K)	mass density ([1]; 288.15 K)	mass density ([1]; 293.15 K)	mass density ([1]; 298.15 K)	mass density ([1]; 303.15 K)	refractive index ([2]; 283.15 K)	refractive index ([2]; 288.15 K)	refractive index ([2]; 293.15 K)	refractive index ([2]; 298.15 K)	refractive index ([2]; 303.15 K)
C=C[Si](C)(C)O[Si](C)(C)C=C [1,3-diethenyl-1,1,3,3-tetramethyldisiloxane]											822.67 ± 1 kg/m3	817.77 ± 1 kg/m3	812.92 ± 1 kg/m3	808 ± 1 kg/m3	803.07 ± 1 kg/m3	1.41766 ± 0.00032	1.415 ± 0.00032	1.41236 ± 0.00032	1.4097 ± 0.00032	1.40707 ± 0.00032
COc1ccccc1 [anisole]											1003.3 ± 1 kg/m3	998.62 ± 1 kg/m3	994.01 ± 1 kg/m3	989.32 ± 1 kg/m3	984.59 ± 1 kg/m3	1.52242 ± 0.00031	1.51985 ± 0.00031	1.51724 ± 0.00031	1.5146 ± 0.00032	1.51191 ± 0.00032
Clc1ccccc1 [chlorobenzene]											1117.29 ± 1 kg/m3	1111.89 ± 1 kg/m3	1106.55 ± 1 kg/m3	1101.16 ± 1 kg/m3	1095.79 ± 1 kg/m3	1.52992 ± 0.00032	1.52722 ± 0.00032	1.52446 ± 0.00032	1.52168 ± 0.00032	1.51893 ± 0.00032
Clc1ccccc1 [chlorobenzene] + C=C[Si](C)(C)O[Si](C)(C)C=C	1117.29 ± 1 kg/m3	1111.89 ± 1 kg/m3	1106.55 ± 1 kg/m3	1101.16 ± 1 kg/m3	1095.79 ± 1 kg/m3	1.52992 ± 0.00032	1.52722 ± 0.00032	1.52446 ± 0.00032	1.52168 ± 0.00032	1.51893 ± 0.00032										
CCc1ccccc1 [ethylbenzene]											875.69 ± 1 kg/m3	871.3 ± 1 kg/m3	866.9 ± 1 kg/m3	862.58 ± 1 kg/m3	858.16 ± 1 kg/m3	1.50118 ± 0.00032	1.49845 ± 0.00032	1.49575 ± 0.00032	1.49301 ± 0.00032	1.4903 ± 0.00032
Fc1ccccc1 [fluorobenzene]											1036.89 ± 1 kg/m3	1030.93 ± 1 kg/m3	1024.96 ± 1 kg/m3	1019.07 ± 1 kg/m3	1013.03 ± 1 kg/m3	1.47152 ± 0.00032	1.46859 ± 0.00032	1.46571 ± 0.00032	1.46283 ± 0.00032	1.45989 ± 0.00032
Fc1ccccc1 [fluorobenzene] + C=C[Si](C)(C)O[Si](C)(C)C=C	1036.89 ± 1 kg/m3	1030.93 ± 1 kg/m3	1024.96 ± 1 kg/m3	1019.07 ± 1 kg/m3	1013.03 ± 1 kg/m3	1.47152 ± 0.00032	1.46859 ± 0.00032	1.46571 ± 0.00032	1.46283 ± 0.00032	1.45989 ± 0.00032										
O=[N+]([O-])c1ccccc1 [nitrobenzene]											1212.99 ± 1 kg/m3	1208.01 ± 1 kg/m3	1203.05 ± 1 kg/m3	1198.2 ± 1 kg/m3	1193.25 ± 1 kg/m3	1.55729 ± 0.00031	1.55485 ± 0.00031	1.55234 ± 0.00031	1.54992 ± 0.00031	1.54746 ± 0.00031
O=[N+]([O-])c1ccccc1 [nitrobenzene] + C=C[Si](C)(C)O[Si](C)(C)C=C	1212.99 ± 1 kg/m3	1208.01 ± 1 kg/m3	1203.05 ± 1 kg/m3	1198.2 ± 1 kg/m3	1193.25 ± 1 kg/m3	1.55729 ± 0.00031	1.55485 ± 0.00031	1.55234 ± 0.00031	1.54992 ± 0.00031	1.54746 ± 0.00031										

Continued, in another order:

mass density ([3]; 283.15 K)	mass density ([3]; 288.15 K)	mass density ([3]; 293.15 K)	mass density ([3]; 298.15 K)	mass density ([3]; 303.15 K)	refractive index ([4]; 283.15 K)	refractive index ([4]; 288.15 K)	refractive index ([4]; 293.15 K)	refractive index ([4]; 298.15 K)	refractive index ([4]; 303.15 K)	Compound	mass density ([1]; 283.15 K)	mass density ([1]; 288.15 K)	mass density ([1]; 293.15 K)	mass density ([1]; 298.15 K)	mass density ([1]; 303.15 K)	refractive index ([2]; 283.15 K)	refractive index ([2]; 288.15 K)	refractive index ([2]; 293.15 K)	refractive index ([2]; 298.15 K)	refractive index ([2]; 303.15 K)
1003.3 ± 1 kg/m3	998.62 ± 1 kg/m3	994.01 ± 1 kg/m3	989.32 ± 1 kg/m3	984.59 ± 1 kg/m3	1.52242 ± 0.00031	1.51985 ± 0.00031	1.51724 ± 0.00031	1.5146 ± 0.00032	1.51191 ± 0.00032	COc1ccccc1 [anisole] + C=C[Si](C)(C)O[Si](C)(C)C=C										
875.69 ± 1 kg/m3	871.3 ± 1 kg/m3	866.9 ± 1 kg/m3	862.58 ± 1 kg/m3	858.16 ± 1 kg/m3	1.50118 ± 0.00032	1.49845 ± 0.00032	1.49575 ± 0.00032	1.49301 ± 0.00032	1.4903 ± 0.00032	CCc1ccccc1 [ethylbenzene] + C=C[Si](C)(C)O[Si](C)(C)C=C										
